Reference: patent US5486516A, “Furopyrimidine derivatives” (DowElanco, priority 1993, dated 1996)

Legend:
[1] = test system: Pyricularia oryzae (rice blast); test: whole plant or invertebrate; format: in vivo; details: foliar, read-out: RICE BLAST control rating
[2] = test system: Twospotted spider mites (Tetranychus urticae Koch); test: Mite/insect screen, twospotted spider mites; format: in vivo; details: Tetranychus urticae, sprayed leaves, read-out: SM results (percent mortality); for mortality at 200 ppm: rate 200 ppm; for mortality at 400 ppm: rate 400 ppm
Outline: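 Percent mortality, along with phytotoxicity, was read after standard exposure periods. Beforehand, mites established on both surfaces of squash cotyledons received a runoff spray (10 psi) of water-diluted compound formulated in acetone/alcohol with sulfonate/nonionic emulsifiers.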

[3] = test system: Pseudoperonospora cubensis (downy mildew); test: Plant pathology screen (Test 1), downy mildew on squash; details: foliar, read-out: DOWN MDEW control rating
[4] = test system: Erysiphe graminis tritici (powdery mildew); test: Plant pathology screen (Test 1), powdery mildew on wheat; details: Blumeria graminis, in Triticum aestivum, foliar, read-out: POWD MDEW control rating
Method: The test compounds were formulated for application by dissolving 50 mg of the compound into 1.25 ml of solvent. The solvent was prepared by mixing 50 ml of "Tween 20" (polyoxyethylene (20) sorbitan monolaurate emulsifier) with 475 ml of acetone and 475 ml of ethanol. The solvent/compound solution was diluted to 125 ml with deionized water. The resulting formulation contains 400 ppm test chemical. Lower concentrations were obtained by serial dilution with the solvent-surfactant mixture.
The formulated test compounds were applied by foliar spray.
The formulated technical compounds were sprayed on all foliar surfaces of the host plants (or cut berry) to past run-off. Single pots of each host plant were placed on raised, revolving pedestals in a fume hood. Test solutions were sprayed on all foliar surfaces. All treatments were allowed to dry and the plants were inoculated with the appropriate pathogens within 2-4 hours.
The effectiveness of test compounds in controlling disease was rated using the following scale.

[5] = test system: melon aphids (Aphis gossvpii Glover); test: Mite/insect screen, melon aphids; format: in vivo; details: sprayed leaves; for mortality at 200 ppm / mortality at 400 ppm: Aphis, read-out: MA results (percent mortality); for mortality at 200 ppm: rate 200 ppm
Outline: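 Percent mortality of melon aphids was assessed after standard exposure periods. Infested squash cotyledons had been sprayed on both leaf surfaces until runoff at 10 psi with water-diluted test solutions. Compounds were formulated in acetone/alcohol (50:50) containing emulsifiers.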

[6] = test system: Botrytis cinerea (gray mold); test: Plant pathology screen (Test 1), gray mold on grape berries; details: read-out: GRAY MOLD control rating
[7] = test system: southern armyworm (Spodopetra eridania Cramer); test: Mite/insect screen, Southern armyworm; format: in vivo; details: sprayed leaves; for mortality at 200 ppm / mortality at 400 ppm: Spodoptera eridania, read-out: SAW results (percent mortality); for mortality at 200 ppm: rate 200 ppm
Outline: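 Southern armyworm larvae placed in Petri dishes with two excised squash leaves that had been sprayed to runoff (10 psi) with emulsified compound and air-dried for 1 h. Mortality in percent recorded after a standard exposure period; formulation acetone/alcohol plus Toximul R and S, water-diluted.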

[8] = test system: Puccinia recondita tritici (leaf rust); test: Plant pathology screen (Test 1), leaf rust on wheat; details: in Triticum aestivum, foliar, read-out: LEAF RUST control rating
[9] = test system: Southern corn rootworm (Diabrotica undecimpuctata howardi Barber); test: Mite/insect screen, corn rootworm; format: in vivo; details: soil; for mortality at 12 ppm / mortality at 24 ppm: Diabrotica, read-out: CRW results (percent mortality); for mortality at 12 ppm: CRW rate 12.00 ppm
Outline: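 Five 2-3 instar larvae per cup were placed on sandy soil (15 g, with presoaked corn seed) treated 6–12 h earlier with 1 mL test solution, an emulsified acetone/alcohol formulation diluted in water. Cups kept at 23° C; mortality and phytotoxicity assessed as percent after standard exposures.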

Structure (SMILES)	pest or weed control at 400 µg/mL [1] [%]	mortality at 200 ppm [2] [%]	mortality at 400 ppm [2] [%]	pest or weed control at 400 µg/mL [3] [%]	pest or weed control at 400 µg/mL [4] [%]	mortality at 200 ppm [5] [%]	mortality at 400 ppm ([5]; rate 400 ppm) [%]	pest or weed control at 400 µg/mL [6] [%]	mortality at 200 ppm [7] [%]	mortality at 400 ppm ([7]; rate 400 ppm) [%]	pest or weed control at 400 µg/mL [8] [%]	mortality at 12 ppm [9] [%]	mortality at 24 ppm ([9]; CRW rate 24.00 ppm) [%]	MA results (percent mortality) ([5]; rate 400 ppm) [%]	SAW results (percent mortality) ([7]; rate 400 ppm) [%]	CRW results (percent mortality) ([9]; CRW rate 24.00 ppm) [%]
Cc1oc2ncnc(OCCc3ccc(-c4ccccc4)cc3)c2c1C [Example 51, 4-[2-[4-biphenylyl]ethoxy]-5,6-dimethylfuro[2,3-d]pyrimidine]	0 to 19	100	80	90 to 100	0 to 19	90	80	0 to 19	0	0	0 to 19	0	0			
Cc1ccc(Oc2ncnc3oc(C)c(C)c23)cc1 [Example 62, 5,6-dimethyl-4-(4-methylphenoxy)furo[2,3-d]pyrimidine]	0 to 19	0	0	0 to 19	90 to 100	0	0	0 to 19	0	0	0 to 19	0	0			
Cc1oc2ncnc(Oc3ccc(F)cc3Cl)c2c1C [Example 59, 4-(2-chloro-4-fluorophenoxy)-5,6-dimethylfuro[2,3-d]pyrimidine]	0 to 19	0	0	0 to 19	90 to 100	0	0	0 to 19	0	0	20 to 89	0	0			
Cc1oc2ncnc(NCCc3ccc(Cl)cc3)c2c1C [Example 10, N-(2-(4-chlorophenyl)ethyl]-5,6-dimethylfuro[2,3-d]pyrimidin-4-amine]	90 to 100	0	0	20 to 89	0 to 19	0	0	0 to 19	0	0	20 to 89	0	0			
Cc1oc2ncnc(NCCc3ccc(OCC(F)(F)F)cc3)c2c1C [Example 73, 5,6-dimethyl-N-[2-[4-(2,2,2-trifluoroethoxy)phenyl]ethyl]furo[2,3-d]pyrimidin-4-amine]	0 to 19		0	20 to 89	0 to 19		90	0 to 19		100	20 to 89		0			
Cc1oc2ncnc(Oc3ccccc3)c2c1C [Example 64, 5,6-dimethyl-4-phenoxyfuro[2,3-d]pyrimidine]	0 to 19	0	0	90 to 100	90 to 100	0	0	0 to 19	0	0	20 to 89	0	0			
Cc1oc2ncnc(NCCc3ccc(C(C)(C)C)cc3)c2c1C [Example 20, N-[2-[4-(t-butyl)phenyl]ethyl]-5,6-dimethylfuro[2,3-d]pyrimidin-4-amine]	20 to 89	0		90 to 100	0 to 19	0	0	0 to 19	0	0	90 to 100	0	0	0	0	0
COc1ccc(CCOc2ncnc3oc(C)c(C)c23)cc1 [Example 52, 4-[2-(4-methoxyphenyl)ethoxy]-5,6-dimethylfuro[2,3-d]pyrimidine]	90 to 100	0	0	90 to 100	90 to 100	80	100	0 to 19	0	0	90 to 100	0	0			
Cc1oc2ncnc(NCCC3=CCCCC3)c2c1C [Example 72, 5,6-dimethyl-N-[2-(1-cyclohexenyl)ethyl]furo[2,3-d]pyrimidin-4-amine]	0 to 19		0	90 to 100	20 to 89		100	0 to 19		60	90 to 100		0			
Cc1oc2ncnc(NCCc3cccc(C(F)(F)F)c3)c2c1C [Example 23, 5,6-dimethyl-N-[2-[3-(trifluoromethyl)phenyl]ethyl]furo[2,3-d]pyrimidin-4-amine]	0 to 19	0	0	0 to 19	0 to 19	0	0	0 to 19	0	0	20 to 89	100	0			
Cc1cc2c(OCCc3ccc(C(C)(C)C)cc3)ncnc2o1 [Example 46, 4-[2-[4-(1,1-dimethylethyl)phenyl]ethoxy]-6-methylfuro[2,3-d]pyrimidine]	0 to 19	80	80	0 to 19	0 to 19	90	60	0 to 19	0	0	0 to 19	0	0			
CCCCOc1ccc(CCOc2ncnc3oc(C)cc23)cc1 [Example 44, 4-[4-(4-butoxyphenyl)ethoxy]-6-methylfuro[2,3-d]pyrimidine]	0 to 19		0	20 to 89	0 to 19		0	0 to 19		0	90 to 100		0			
Cc1oc2ncnc(OCCCc3cccnc3)c2c1C [Example 13, 5,6-dimethyl-4-[3-(3-pyridinyl)propoxy]furo[2,3-d]pyrimidine]	0 to 19	0	0	0 to 19	0 to 19	0	0	0 to 19	0	0	0 to 19	0	100			
Cc1oc2ncnc(NCCc3ccc4ccccc4c3)c2c1C [Example 22, 5,6-dimethyl-N-[2-(2-naphthyl)ethyl]furo[2,3-d]pyrimidin-4-amine]	0 to 19	0	0	0 to 19	0 to 19	0	0	0 to 19	0	0	0 to 19	0	0			
